Laboratory results as given in paper PMC6876247 (Proceedings of the National Academy of Sciences of the …, 2019).

Molecular target: T1, GPR43 (Mus musculus, UniProt Q8VCK6)
T1 sequence (Q8VCK6 1-330): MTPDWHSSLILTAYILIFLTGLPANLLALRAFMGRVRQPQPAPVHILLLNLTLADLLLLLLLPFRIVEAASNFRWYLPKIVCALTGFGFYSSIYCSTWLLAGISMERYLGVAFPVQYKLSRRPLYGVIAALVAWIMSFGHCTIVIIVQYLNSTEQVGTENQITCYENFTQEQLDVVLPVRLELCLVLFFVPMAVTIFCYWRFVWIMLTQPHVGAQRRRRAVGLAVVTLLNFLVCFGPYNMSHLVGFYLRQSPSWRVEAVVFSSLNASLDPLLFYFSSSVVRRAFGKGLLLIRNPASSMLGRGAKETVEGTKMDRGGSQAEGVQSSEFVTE
Format: cell-based

With CC(=O)CC(=O)O [acetoacetate] as the compound, how does the EC50 read?
Its EC50 is 760 µM.
